Assay results published in patent US20240218066A1, “USE OF ANTI-PD-1 ANTIBODY IN COMBINATION WITH FIRST-LINE CHEMOTHERAPY IN TREATMENT OF ADVANCED NON-SMALL CELL LUNG CANCER” (SHANGHAI JUNSHI BIOSCIENCES CO., LTD., priority 2021, published 2024).

How the values were obtained:
[1] = system: patients with untreated advanced NSCLC; assay: Phase III clinical study, efficacy assessed by the BIRC according to RECIST 1.1; format: in vivo, human; parameters: reduction of the risk of progression or death, compared to standard chemotherapy / increase of PFS rate at 6 months compared to control group / increase of PFS rate at 12 months compared to control group / increase in ORR compared to control group: concentration or dose not given beside the values
Protocol: (§1) About 450 patients with advanced NSCLC not accompanied by EGFR-sensitive mutations and ALK fusions were randomly divided into two groups according to a 2:1 ratio, with the test group receiving toripalimab in combination with first-line standard chemotherapy and the control group receiving placebo in combination with first-line standard chemotherapy. Stratification was performed according to PD-L1 expression (TC≥1% vs TC<1%), smoking status (frequent smoking vs no smoking or little smoking), and pathological type (squamous cell carcinoma vs non-squamous cell carcinoma).
(§2) After randomization, the patients were subjected to treatment in the induction stage for 4-6 cycles, during which the patients received toripalimab/placebo+first-line standard chemotherapy. After the induction stage was over, the patients were subjected to treatment in the maintenance stage, during which patients with squamous cell carcinoma continued to receive toripalimab/placebo treatment until progressive disease, and patients with non-squamous cell carcinoma continued to receive toripalimab/placebo+pemetrexed treatment until progressive disease.
Tumor assessments were performed once every 6 weeks for the first 12 months of the study stage according to RECIST 1.1 and iRECIST; after 12 months, tumor assessments were performed every 9 weeks until progressive disease, initiation of a new anti-tumor therapy, intolerable toxicity, withdrawal of informed consent or death, 2 years of treatment with toripalimab, or other reasons as specified in the protocol, whichever occurred first.
Eligible subjects must (1) be patients with histologically and/or cytologically confirmed locally advanced (stage IIIB or IIIC) and stage IV non-small cell lung cancer that is inoperable and cannot receive radical concurrent chemoradiotherapy; (2) have at least one measurable lesion (according to RECIST 1.1); (3) have not received any systemic treatment (patients with recurrence more than 6 months after completion of prior neoadjuvant/adjuvant therapy may also be enrolled); (4) be aged between 18 and 75 years; (5) have ECOG of 0-1; (6) have an expected survival of ≥3 months; and (7) be available to provide tissue specimens for PD-L1 testing.
(§3) Unless otherwise specified, the efficacy analysis was based on the ITT set, which was analyzed by groups according to the treatment regimen to which patients were assigned at randomization.
The progression-free survival rate and median progression-free survival of the JS001+first-line standard treatment group and the placebo+first-line standard treatment group at different time points after the start of treatment were estimated by the Kaplan-Meier method, and Kaplan-Meier curves were plotted. The 95% confidence interval for progression-free survival rate at different time points (6 months and 1 year) was estimated using the Greenwood formula. The 95% confidence interval for median progression-free survival was estimated using the Brookmeyer-Crowley method where the log-log function conversion was used to reach normal approximation. Statistical test was performed on the inter-group difference by a stratified log-rank method for the total population. Statistical test was performed on the inter-group difference by a non-stratified log-rank method for the subpopulations. A stratified COX proportional hazards model was used to estimate the inter-group hazard ratio (HR) and the corresponding 95% confidence interval, and the tied events were processed by an exact method. Stratification analysis was performed using 3 stratification factors in the randomization process, including: (1) PD-L1 expression (TC≥1% vs TC<1%); (2) smoking status (frequent smoking vs no smoking or little smoking); and (3) pathological type (squamous cell carcinoma vs non-squamous cell carcinoma).
For analysis of secondary efficacy endpoints OS, DOR, and TTR, the method described above as applied to the primary efficacy endpoint PFS was used. […]

[2] = system: patients with untreated advanced NSCLC; assay: Phase III clinical study, overall survival (OS); format: in vivo, human
Protocol: as §1, §2, §3
For analysis of secondary efficacy endpoints OS, DOR, and TTR, the method described above as applied to the primary efficacy endpoint PFS was used. For ORR and DCR, the percentage of patients in each treatment group was calculated, and their 95% confidence intervals were calculated using the Clopper-Pearson method. The nominal P values for inter-group comparison were calculated using the Cochran-Mantel-Haenszel method considering randomization stratification factors that were the same as the primary efficacy analysis, and the 95% CI for the inter-group rate differences was estimated.

[3] = system: patients with untreated advanced NSCLC; assay: Phase III clinical study, safety analysis (SS population)
Protocol: This is a randomized, double-blind, placebo-controlled, multicenter, phase III clinical study for assessing the efficacy and safety of toripalimab (JS001) or placebo in combination with first-line chemotherapy in patients with untreated advanced NSCLC and exploring the population with optimal biomarker prediction.
Toripalimab 240 mg/placebo was administered by intravenous infusion once every three weeks (Q3W) in cycles of 21 days, with treatment continued until the patients met the discontinuation criteria, i.e., recorded progressive disease, unacceptable AEs, investigator-assessed unsuitability for continued treatment, withdrawal of informed consent, 2 years of JS001 treatment, or other reasons as specified in the protocol.
The selection of cisplatin or carboplatin was at the discretion of the investigator.
Safety analysis set (SS): including all patients who received at least one dose of the study drug (JS001/placebo/chemotherapeutic agent).
Safety analysis was performed in SS and crossover treatment analysis sets, where safety data from the double-blind stage of the primary study and the crossover treatment stage were analyzed separately. Safety analyses include drug exposure, compliance, adverse events, laboratory examinations, vital signs, physical examinations, electrocardiogramaminations, ECOG scores, etc.
All safety analyses were based on the SS population (464 patients), including 308 patients in the test group and 156 patients in the control group. […] The primary safety analysis results based on the SS population in the double-blind stage of the primary study are as follows:

[4] = patients with non-squamous cell carcinoma
[5] = patients with squamous cell carcinoma
[6] = SS population, double-blind stage
[7] = compared to placebo + chemotherapy

“JS001 + standard first-line chemotherapy: toripalimab 240 mg Q3W plus albumin-bound paclitaxel+carboplatin (squamous) or pemetrexed+cisplatin/carboplatin (non-squamous)” was tested, and the “PFS rate at 6 months” value ([1]; ITT) was 65.3%, the “PFS rate at 12 months” value ([1]; ITT) was 38.9% and the “increase of PFS rate at 6 months compared to control group” value ([1]; ITT) was 16%. For the same substance, the “increase of PFS rate at 12 months compared to control group” value ([1]; ITT) was 22.7%, the “HR for PFS (test vs control)” value ([1]; ITT population) was 0.61 and the “PFS prolonged by, compared to standard chemotherapy” value ([1]; ITT population) was 2.5 months. The “reduction of the risk of progression or death, compared to standard chemotherapy” value ([1]; ITT population) was 39%, the “median PFS” value ([1]; ITT population, RECIST 1.1) was 8.3 months and the “Best overall response: Complete response (CR)” value ([1]; non-squamous cell carcinoma) was 3 (1.9) N (%). The “Best overall response: Deletion” value ([1]; non-squamous cell carcinoma) was 8 (4.9) N (%), the “Best overall response: Non-complete response/non-progressive disease (Non CR/Non PD)” value ([1]; non-squamous cell carcinoma) was 0 N (%) and the “Best overall response: Not evaluable (NE)” value ([1]; non-squamous cell carcinoma) was 0 N (%). The “Best overall response: Partial response (PR)” value ([1]; non-squamous cell carcinoma) was 94 (58.0) N (%), the “Best overall response: Progressive disease (PD)” value ([1]; non-squamous cell carcinoma) was 8 (4.9) N (%) and the “Duration of response (DOR), Median (95% confidence interval)” value ([1]; non-squamous cell carcinoma) was “NE (6.9, NE)”. For the same substance, the “Objective response rate (ORR)” value ([1]; non-squamous cell carcinoma) was 97 (59.9) N (%), the DCR ([1]; overall population) was 90.9% and the “increase in ORR compared to control group” value (from here on “increase in ORR”) ([1]; overall population) was 20.8%. The ORR ([1]; overall population, RECIST v1.1) was 65.7%, the “HR for PFS (test vs control)” value [1, 4] was 0.55 and the ORR [1, 4] was 59.9%. The “increase in ORR” value [1, 4] was 27.4%, the “median PFS” value [1, 4] was 10.3 months and the “HR for PFS (test vs control)” value [1, 5] was 0.63. The ORR [1, 5] was 72.1%, the “increase in ORR” value [1, 5] was 13.3% and the “median PFS” value [1, 5] was 6.9 months. The “Best overall response: Complete response (CR)” value ([1]; squamous cell carcinoma) was 0 N (%), the “Best overall response: Deletion” value ([1]; squamous cell carcinoma) was 8 (5.4) N (%) and the “Best overall response: Non-complete response/non-progressive disease (Non CR/Non PD)” value ([1]; squamous cell carcinoma) was 1 (0.7) N (%). The “Best overall response: Not evaluable (NE)” value ([1]; squamous cell carcinoma) was 0 N (%), the “Best overall response: Partial response (PR)” value ([1]; squamous cell carcinoma) was 106 (72.1) N (%) and the “Best overall response: Progressive disease (PD)” value ([1]; squamous cell carcinoma) was 3 (2.0) N (%). For the same substance, the “Duration of response (DOR), Median (95% confidence interval)” value ([1]; squamous cell carcinoma) was 5.7 (5.2, 9.5), the “Objective response rate (ORR)” value ([1]; squamous cell carcinoma) was 106 (72.1) N (%) and the “HR for OS (test vs control)” value ([2]; ITT population) was 0.81. For the same substance, the “median OS” value ([2]; ITT population, as of Mar. 11, 2021, OS data not mature) was 21.0 months, the deaths reported ([2]; as of Mar. 11, 2021, median follow-up 9.82 months) was 25.6% and the “HR for OS (test vs control)” value [2, 4] was 0.56. For the same substance, the “HR for OS (test vs control)” value [2, 5] was 1.23, the “median OS” value [2, 5] was 21.0 months and the “SAE: anemia” value ([3]; SS population) was 5.2%. For the same substance, the “SAE: bone marrow depression” value ([3]; SS population) was 1.0%, the “SAE: infectious pneumonia” value ([3]; SS population) was 4.9% and the “SAE: leukopenia” value ([3]; SS population) was 2.9%. For the same substance, the “SAE: neutropenia” value ([3]; SS population) was 5.5%, the “SAE: thrombocytopenia” value ([3]; SS population) was 6.8% and the “TEAE: anemia” value ([3]; SS population) was 88.3%. For the same substance, the “TEAE: anorexia” value ([3]; SS population) was 32.1%, the “TEAE: constipation” value ([3]; SS population) was 18.5% and the “TEAE: elevated aspartate aminotransferase” value ([3]; SS population) was 31.8%. For the same substance, the “TEAE: fatigue” value ([3]; SS population) was 33.4%, the “TEAE: fever” value ([3]; SS population) was 20.8% and the “TEAE: hypothyroidism” value ([3]; SS population) was 14.9%. The “TEAE: leukopenia” value ([3]; SS population) was 83.1%, the “TEAE: nausea” value ([3]; SS population) was 31.8% and the “TEAE: neutropenia” value ([3]; SS population) was 83.4%. The “TEAE: rash” value ([3]; SS population) was 20.1%, the “TEAE: thrombocytopenia” value ([3]; SS population) was 68.5% and the “proportion of SAEs judged by the investigator to be related to the treatment regimen” value ([3]; SS population) was 31.2%. For the same substance, the “proportion of SAEs occurring during treatment” value ([3]; SS population) was 38.6%, the “proportion of SAEs of grade 3 or higher judged by the investigator to be related to the treatment regimen” value ([3]; SS population) was 22.4% and the “proportion of TEAEs of grade 3 or higher as per CTCAE” value ([3]; SS population) was 76.3%. The “proportion of TEAEs of grade 3 or higher as per CTCAE judged by the investigator to be related to the treatment regimen” value ([3]; SS population) was 71.4%, the “proportion of patients who experienced at least 1 TEAE” value [3, 6] was 99.0% and the “proportion of patients who experienced at least 1 TEAE related to the treatment regimen” value [3, 6] was 98.1%. For the same substance, the “effect on chemotherapy-related toxicity (in words)” value [3, 7] was “did not increase chemotherapy-related toxicity” and the “effect on the incidence of adverse events of grade 3 or higher (in words)” value [3, 7] was “did not increase the incidence of adverse events of grade 3 or higher”.
